For eight molecules, EC50 results are on record in paper PMC4167698, “Fatty Acid Esters of Phloridzin Induce Apoptosis of Human Liver Cancer Cells through Altered Gene Expression” (PLoS ONE, 2014).

Where only a bound is given, the exact number is not on record here.

One assay deals with THP-1 cells. The experiment in a line: MTS cell proliferation assay, THP-1. The assay is classed as cell-based, human. To be noted: MTS. As for the experimental part: (§1) Cell viability was determined by using the MTS assay. In brief, HepG2 cells (5×10^3 cells/100 µL/well), MDA-MB-231 (5×10^3 cells/100 µL/well), THP-1 (25×10^3/100 µL/well), normal human and rat hepatocytes (1×10^4 cells/100 µL/well) were plated in triplicate, in a 96 well sterile flat bottom tissue culture plates. […] Thereby, cells were exposed to various concentrations (0.1, 1, 10, 25, 50, 75, 100 µM) of each treatment. Controls consist of cells with media containing DMSO (<0.5%), test blank wells contained the test compound in media with no cells and blank wells contained media with no cells. After additional 3, 6, 12, 18 or 24 h, 20 µL of the MTS reagent in combination with the electron coupling agent, phenazine methosulfate were added to the wells and cells were incubated in a humidified incubator for 3 h. Absorbance at 490 nm (OD490) was measured by using a Flurostar Optima microplate reader (BMG Labtech, Cary, NC, USA) to obtain the number of viable cells relative to the control population. Percentage of viability of the test compound treated cells are expressed as percentage compared to control (<0.5% DMSO). […] The selective index (SI) of the fatty acid esters of phloridzin is defined as the ratio of cytotoxicity (EC50 values) on normal HP-F cells to solid cancer HepG2, MDA-MB-231 cells (SI = EC50 on HP-F cells/EC50 on solid cancer cells). Samples with SI values greater than three were considered to have high selectivity towards cancer cells.
In general terms: Formazan colour is commonly taken as a measure of viable cells.

Another assay relates to MDA-MB-231 cells. The assay is described as follows: MTS cell proliferation assay, MDA-MB-231. Type of assay: cell-based, human. As to conditions: MTS. As for the experimental part: as §1
Assay [1] deals with normal human hepatocytes (HP-F). The experiment in a line: MTS cell viability assay, normal human hepatocytes. To be noted: 24 h. Type of assay: cell-based. As for the experimental part: as §1
The next assay concerns HepG2 cells. The experiment in a line: MTS cell proliferation assay, HepG2. Type of assay: cell-based, human. As to conditions: MTS. On the procedure:
as §1

What is called EC50 is the concentration at which the effect is half-maximal.

Take `CC/C=C\C/C=C\C/C=C\C/C=C\C/C=C\C/C=C\CCC(=O)O` [DHA, decosahexaenoic acid]: the EC50 is > 100 µM in the assay with THP-1 cells (THP-1, 3 h); > 100 µM with THP-1 cells (THP-1, 6 h); > 100 µM in the assay on THP-1 cells (THP-1, 12 h); > 100 µM in the assay on THP-1 cells (THP-1, 18 h); > 100 µM in the assay with THP-1 cells (THP-1, 24 h); > 100 µM with MDA-MB-231 cells (MDA-MB-231, 3 h). Besides, the concentration giving a half-maximal response (EC50) in the assay with MDA-MB-231 cells (MDA-MB-231, 6 h) is > 100 µM; in the assay on MDA-MB-231 cells (MDA-MB-231, 12 h) it was > 100 µM; in the assay with MDA-MB-231 cells (MDA-MB-231, 18 h), > 100 µM; in the assay on MDA-MB-231 cells (MDA-MB-231, 24 h), > 100 µM; in assay [1] it was > 100 µM; in the assay with HepG2 cells (HepG2, 3 h) it was > 100 µM. For the same molecule, the EC50 with HepG2 cells (HepG2, 6 h) was > 100 µM; in the assay on HepG2 cells (HepG2, 12 h) it was > 100 µM; in the assay with HepG2 cells (HepG2, 18 h) it was > 100 µM; in the assay with HepG2 cells (HepG2, 24 h), > 100 µM.
As for `COc1cccc2c1C(=O)c1c(O)c3c(c(O)c1C2=O)C[C@@](O)(C(C)=O)C[C@@H]3O[C@H]1C[C@H](N)[C@H](O)[C@H](C)O1` [Daunorubicin, daunorubicin], the EC50 amounted to 48.1 ± 2.8 µM with THP-1 cells (Homo sapiens, THP-1, 3 h); 35.2 ± 2.9 µM in the assay on THP-1 cells (Homo sapiens, THP-1, 6 h); 12.6 ± 0.8 µM with THP-1 cells (Homo sapiens, THP-1, 12 h); 1.4 ± 0.2 µM with THP-1 cells (Homo sapiens, THP-1, 18 h); 0.02 ± 0.01 µM with THP-1 cells (Homo sapiens, THP-1, 24 h).
Take `COc1cccc2c1C(=O)c1c(O)c3c(c(O)c1C2=O)C[C@@](O)(C(=O)CO)C[C@@H]3O[C@H]1C[C@H](N)[C@H](O)[C@H](C)O1` [Doxorubicin, doxorubicin]: the EC50 is > 100 µM with MDA-MB-231 cells (Homo sapiens, MDA-MB-231, 3 h); > 100 µM in the assay on MDA-MB-231 cells (Homo sapiens, MDA-MB-231, 6 h); 9.6 ± 0.2 µM in the assay on MDA-MB-231 cells (Homo sapiens, MDA-MB-231, 12 h); 5.9 ± 0.3 µM in the assay on MDA-MB-231 cells (Homo sapiens, MDA-MB-231, 18 h); 4.1 ± 0.1 µM in the assay with MDA-MB-231 cells (Homo sapiens, MDA-MB-231, 24 h).
Turning to `CC/C=C\C/C=C\C/C=C\C/C=C\C/C=C\CCCC(=O)O` [EPA, eicosapentaenoic acid], the EC50 was > 100 µM with THP-1 cells (Homo sapiens, THP-1, 3 h); > 100 µM in the assay with THP-1 cells (Homo sapiens, THP-1, 6 h); > 100 µM in the assay on THP-1 cells (Homo sapiens, THP-1, 12 h); > 100 µM with THP-1 cells (Homo sapiens, THP-1, 18 h); > 100 µM in the assay with THP-1 cells (Homo sapiens, THP-1, 24 h); > 100 µM in the assay with MDA-MB-231 cells (Homo sapiens, MDA-MB-231, 3 h). Further, the concentration giving a half-maximal response (EC50) was > 100 µM in the assay on MDA-MB-231 cells (Homo sapiens, MDA-MB-231, 6 h); > 100 µM with MDA-MB-231 cells (Homo sapiens, MDA-MB-231, 12 h); > 100 µM in the assay on MDA-MB-231 cells (Homo sapiens, MDA-MB-231, 18 h); > 100 µM with MDA-MB-231 cells (Homo sapiens, MDA-MB-231, 24 h); > 100 µM in assay [1] (Hepatocyte); > 100 µM with HepG2 cells (Homo sapiens, HepG2, 3 h). Moreover, the EC50 was > 100 µM with HepG2 cells (Homo sapiens, HepG2, 6 h); > 100 µM in the assay on HepG2 cells (Homo sapiens, HepG2, 12 h); > 100 µM in the assay on HepG2 cells (Homo sapiens, HepG2, 18 h); > 100 µM in the assay with HepG2 cells (Homo sapiens, HepG2, 24 h).
With `CCCCC/C=C\C/C=C\CCCCCCCC(=O)O` [Linoleic acid, linoleic acid], the EC50 in the assay with THP-1 cells (Homo sapiens, THP-1, 3 h) is > 100 µM; in the assay with THP-1 cells (Homo sapiens, THP-1, 6 h), > 100 µM; with THP-1 cells (Homo sapiens, THP-1, 12 h) it was > 100 µM; in the assay with THP-1 cells (Homo sapiens, THP-1, 18 h), > 100 µM; with THP-1 cells (Homo sapiens, THP-1, 24 h) it was > 100 µM; in the assay on MDA-MB-231 cells (Homo sapiens, MDA-MB-231, 3 h) it was > 100 µM. Besides, the EC50 with MDA-MB-231 cells (Homo sapiens, MDA-MB-231, 6 h) is > 100 µM; in the assay with MDA-MB-231 cells (Homo sapiens, MDA-MB-231, 12 h), > 100 µM; in the assay on MDA-MB-231 cells (Homo sapiens, MDA-MB-231, 18 h) it was > 100 µM; in the assay with MDA-MB-231 cells (Homo sapiens, MDA-MB-231, 24 h), > 100 µM; in assay [1] (Hepatocyte) it was > 100 µM; with HepG2 cells (Homo sapiens, HepG2, 3 h), > 100 µM. Further, the EC50 with HepG2 cells (Homo sapiens, HepG2, 6 h) is > 100 µM; with HepG2 cells (Homo sapiens, HepG2, 12 h), > 100 µM; in the assay on HepG2 cells (Homo sapiens, HepG2, 18 h) it was > 100 µM; with HepG2 cells (Homo sapiens, HepG2, 24 h), > 100 µM.
In the case of `CCCCCCCC/C=C\CCCCCCCC(=O)O` [Oleic acid, oleic acid], the EC50 in the assay on THP-1 cells (Homo sapiens, THP-1, 3 h) is > 100 µM; with THP-1 cells (Homo sapiens, THP-1, 6 h), > 100 µM; with THP-1 cells (Homo sapiens, THP-1, 12 h), > 100 µM; with THP-1 cells (Homo sapiens, THP-1, 18 h) it was > 100 µM; in the assay with THP-1 cells (Homo sapiens, THP-1, 24 h) it was > 100 µM; in the assay on MDA-MB-231 cells (Homo sapiens, MDA-MB-231, 3 h), > 100 µM. Moreover, the EC50 with MDA-MB-231 cells (Homo sapiens, MDA-MB-231, 6 h) is > 100 µM; in the assay on MDA-MB-231 cells (Homo sapiens, MDA-MB-231, 12 h), > 100 µM; in the assay on MDA-MB-231 cells (Homo sapiens, MDA-MB-231, 18 h) it was > 100 µM; in the assay with MDA-MB-231 cells (Homo sapiens, MDA-MB-231, 24 h), > 100 µM; in assay [1] (Hepatocyte), > 100 µM; in the assay with HepG2 cells (Homo sapiens, HepG2, 3 h) it was > 100 µM. For the same molecule, the EC50 is > 100 µM with HepG2 cells (Homo sapiens, HepG2, 6 h); > 100 µM with HepG2 cells (Homo sapiens, HepG2, 12 h); > 100 µM with HepG2 cells (Homo sapiens, HepG2, 18 h); > 100 µM with HepG2 cells (Homo sapiens, HepG2, 24 h).
As to `CCCCCCCCCCCCCCCCCC(=O)O` [Stearic acid, stearic acid], the 50% effective concentration (EC50) in the assay on THP-1 cells (Homo sapiens, THP-1, 3 h) was > 100 µM; in the assay with THP-1 cells (Homo sapiens, THP-1, 6 h), > 100 µM; in the assay with THP-1 cells (Homo sapiens, THP-1, 12 h), > 100 µM; in the assay with THP-1 cells (Homo sapiens, THP-1, 18 h) it was > 100 µM; with THP-1 cells (Homo sapiens, THP-1, 24 h), > 100 µM; in the assay on MDA-MB-231 cells (Homo sapiens, MDA-MB-231, 3 h), > 100 µM. Besides, the EC50 in the assay with MDA-MB-231 cells (Homo sapiens, MDA-MB-231, 6 h) was > 100 µM; in the assay on MDA-MB-231 cells (Homo sapiens, MDA-MB-231, 12 h), > 100 µM; in the assay with MDA-MB-231 cells (Homo sapiens, MDA-MB-231, 18 h) it was > 100 µM; in the assay on MDA-MB-231 cells (Homo sapiens, MDA-MB-231, 24 h) it was > 100 µM; in assay [1] (Hepatocyte), > 100 µM; in the assay with HepG2 cells (Homo sapiens, HepG2, 3 h) it was > 100 µM. Also, the EC50 was > 100 µM in the assay with HepG2 cells (Homo sapiens, HepG2, 6 h); > 100 µM in the assay on HepG2 cells (Homo sapiens, HepG2, 12 h); > 100 µM with HepG2 cells (Homo sapiens, HepG2, 18 h); > 100 µM with HepG2 cells (Homo sapiens, HepG2, 24 h).
`CC/C=C\C/C=C\C/C=C\CCCCCCCC(=O)O` [α-Linolenic acid, α-linolenic acid]: the EC50 is > 100 µM in the assay with THP-1 cells (THP-1, 3 h); > 100 µM in the assay with THP-1 cells (THP-1, 6 h); > 100 µM in the assay on THP-1 cells (THP-1, 12 h); > 100 µM in the assay with THP-1 cells (THP-1, 18 h); > 100 µM in the assay on THP-1 cells (THP-1, 24 h); > 100 µM in the assay on MDA-MB-231 cells (MDA-MB-231, 3 h). The EC50 is > 100 µM in the assay on MDA-MB-231 cells (MDA-MB-231, 6 h); > 100 µM in the assay with MDA-MB-231 cells (MDA-MB-231, 12 h); > 100 µM in the assay with MDA-MB-231 cells (MDA-MB-231, 18 h); > 100 µM in the assay with MDA-MB-231 cells (MDA-MB-231, 24 h); > 100 µM in assay [1]; > 100 µM in the assay on HepG2 cells (HepG2, 3 h). Further, the EC50 in the assay with HepG2 cells (HepG2, 6 h) was > 100 µM; with HepG2 cells (HepG2, 12 h) it was > 100 µM; in the assay on HepG2 cells (HepG2, 18 h), > 100 µM; with HepG2 cells (HepG2, 24 h), > 100 µM.
